Reference: paper PMC8952208, “Synthesis, Antiplasmodial, and Antileukemia Activity of Dihydroartemisinin–HDAC Inhibitor Hybrids as Multitarget Drugs” (Pharmaceuticals, 2022)

Key:
P. falciparum Dd2 = test: microbe, parasite or virus in culture; type: cell-based; conditions: Plasmodium falciparum, DD2, 72 h, read-out: PfDd2 IC50
Description: (§1) [38, 39] […] After three days of incubation at 37 °C, 5% CO2 and 5% O2 plates were frozen until analyzed by HRP2-ELISA. All compounds were evaluated in duplicate in at least two independent experiments. The IC50 was determined by nonlinear regression analysis of log concentration-response curves using the drc-package v3.0.1 [40] of R v4.0.5..

P. falciparum 3D7 = test: microbe, parasite or virus in culture; type: cell-based; conditions: Plasmodium falciparum, 3D7, 72 h; asexual blood stages, three days incubation; n ≥ 2 in duplicate, mean ± SD; read-out: Pf3D7 IC50
Description: as §1

MOLM13 cells = test: CellTiter-Glo cell viability assay, MOLM13; type: cell-based, human; conditions: Homo sapiens, MOLM-13; AML; 72 h, CellTiter-Glo, n = 3
Description: (§2) Healthy individually-derived fibroblasts were cultured in DMEM supplemented with 10% FCS. Regular cell line authentication was performed short tandem repeat (STR) analysis (DNA fingerprinting), followed by comparison with the original DSMZ cell line database.
(§3) Cell viability assay was performed with leukemic cell lines after 72 h incubation with the respective inhibitors using ATP-based CellTiter-Glo luminescent assay (Promega, Madison, WI, USA).

K562 cells = test: CellTiter-Glo cell viability assay, K562; type: cell-based, human; conditions: Homo sapiens, K562; CML; 72 h, CellTiter-Glo, n = 3
Description: as §2, §3

human HDAC1 (hHDAC1) = biological target: T1, human HDAC1 (hHDAC1) (Homo sapiens, UniProt Q13547); test: In vitro human HDAC1 assay (ZMAL substrate); type: biochemical
T1 construct: purchased BPS Bioscience Inc. 50051
Description: (§4) OptiPlate-96 black microplates (Perkin Elmer Inc., Waltham, MA, USA) were used with an assay volume of 50 µL. […] After an incubation time of 90 min, 50 µL of 0.4 mg/mL trypsin in trypsin buffer (50 mM Tris-HCl, pH 8.0, and 100 mM NaCl) was added, followed by further incubation at 37 °C for 30 min.

A2780 cells = test: MTT cell viability assay; type: cell-based; conditions: Homo sapiens, 72 h, n ≥ 3 in triplicate, mean ± SD
Description: Reagents were obtained from PAN Biotech, Aidenbach Germany. The cell line was cultured at 37 °C under humidified air with 5% CO2 to a confluence of 80–90% before being used for further assays.
Intrinsic cytotoxicity of test compounds was determined by an MTT assay as previously described. A2780 cells were seeded in 96-well plates (Starlab GmbH, Hamburg, Germany) at a density of 20,000 cells/well and allowed to attach for 12 h. Cells were then treated with increasing concentrations of the test compounds. After 72 h, MTT (3-(4,5-dimethylthiazol-2-yl)-2,5-diphenyltetrazolium bromide) (BioChemica, Applichem GmbH, Darmstadt, Germany) solution (5 mg/mL in phosphate-buffered saline) was added to determine cell survival. The formazan dye was dissolved in DMSO (Sigma-Aldrich, Darmstadt, Germany) after 1 h. Absorbance was measured at 570 nm and 690 nm in a Multiskan microplate photometer (Thermo Fisher Scientific, Waltham, MA, USA). Concentration-response curves were generated using the four-parameter logistic equation (GraphPad Prism 9.0, San Diego, USA), and mean IC50 values were calculated in triplicates based on at least three different experiments.

human HDAC6 (hHDAC6) = biological target: T2, human HDAC6 (hHDAC6) (Homo sapiens, UniProt Q9UBN7); test: In vitro human HDAC6 assay (ZMAL substrate); type: biochemical; conditions: for SI 1/6: Selectivity Index = (hHDAC1 IC50)/(hHDAC6 IC50)
T2 construct: purchased BPS Bioscience Inc. 50006
T2 sequence (Q9UBN7 1-1215): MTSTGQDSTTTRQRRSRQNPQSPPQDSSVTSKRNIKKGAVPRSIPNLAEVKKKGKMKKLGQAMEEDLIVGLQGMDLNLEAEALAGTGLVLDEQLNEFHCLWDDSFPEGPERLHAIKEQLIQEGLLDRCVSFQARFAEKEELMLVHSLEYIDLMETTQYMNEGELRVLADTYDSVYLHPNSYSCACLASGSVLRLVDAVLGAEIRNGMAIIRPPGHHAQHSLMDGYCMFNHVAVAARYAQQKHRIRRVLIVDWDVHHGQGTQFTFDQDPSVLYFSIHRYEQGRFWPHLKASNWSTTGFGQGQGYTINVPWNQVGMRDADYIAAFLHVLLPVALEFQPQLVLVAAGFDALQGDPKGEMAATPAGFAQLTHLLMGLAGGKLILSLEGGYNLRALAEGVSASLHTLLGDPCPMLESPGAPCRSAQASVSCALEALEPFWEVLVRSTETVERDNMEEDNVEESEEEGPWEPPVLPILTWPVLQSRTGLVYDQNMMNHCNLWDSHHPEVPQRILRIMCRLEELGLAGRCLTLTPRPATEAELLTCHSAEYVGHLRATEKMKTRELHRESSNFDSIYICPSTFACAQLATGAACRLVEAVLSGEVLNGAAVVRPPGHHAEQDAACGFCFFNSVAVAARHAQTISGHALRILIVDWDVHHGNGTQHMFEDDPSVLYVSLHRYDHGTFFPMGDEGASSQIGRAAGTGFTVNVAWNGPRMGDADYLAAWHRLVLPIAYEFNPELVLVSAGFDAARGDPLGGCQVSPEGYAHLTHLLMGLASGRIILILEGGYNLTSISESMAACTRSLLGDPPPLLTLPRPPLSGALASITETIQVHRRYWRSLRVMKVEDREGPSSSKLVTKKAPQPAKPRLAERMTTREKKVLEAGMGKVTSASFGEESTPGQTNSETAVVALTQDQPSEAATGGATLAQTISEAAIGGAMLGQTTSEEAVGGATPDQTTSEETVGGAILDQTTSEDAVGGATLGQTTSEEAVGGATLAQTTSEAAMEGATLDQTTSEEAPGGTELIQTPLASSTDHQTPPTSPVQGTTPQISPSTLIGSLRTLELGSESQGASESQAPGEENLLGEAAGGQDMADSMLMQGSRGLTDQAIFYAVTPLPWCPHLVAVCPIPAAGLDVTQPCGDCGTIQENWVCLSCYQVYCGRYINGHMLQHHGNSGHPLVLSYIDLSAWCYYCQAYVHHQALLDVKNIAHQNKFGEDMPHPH
Description: as §4

NALM6 cells = test: CellTiter-Glo cell viability assay, NALM6; type: cell-based, human; conditions: Homo sapiens, NALM-6; B-ALL; 72 h, CellTiter-Glo, n = 3
Description: as §2, §3

HPBALL cells = test: CellTiter-Glo cell viability assay, HPBALL; type: cell-based, human; conditions: Homo sapiens, HPBALL; T-ALL; 72 h, CellTiter-Glo, n = 3
Description: as §2, §3

HL60 cells = test: CellTiter-Glo cell viability assay, HL60; type: cell-based, human; conditions: Homo sapiens, HL-60; AML; 72 h, CellTiter-Glo, n = 3
Description: as §2, §3

[1] = tested on: five leukemia cell lines (K562, HL60, NALM6, HPBALL, MOLM13); test: CellTiter-Glo cell viability assay, panel of five leukemia cell lines; type: cell-based, human; conditions: number of the five leukemia cell lines in which DHA is exceeded
Description: as §2, §3

P. falciparum Dd2 R539T = test: In vitro P. falciparum growth inhibition assay (HRP2), Dd2 R539T; type: cell-based; conditions: Plasmodium falciparum, DD2, 72 h, read-out: PfDd2 R539T IC50
Description: Antiplasmodial activity of DHA–HDACi hybrids was evaluated against the asexual stages of the laboratory P. falciparum strains (3D7, chloroquine-sensitive strain, and Dd2, chloroquine-resistant strain, and Dd2 R539T (MRA-1255), provided by BEI Resources carrying a kelch13-mutation that conveys partial artemisinin resistance), using the histidine-rich protein 2 (HRP2) assay, as previously described. In brief: 96-well plates were precoated with the tested compounds in a three-fold serial dilution before ring-stage parasites were added in complete culture medium at a hematocrit of 1.5% and a parasitaemia of 0.05%. After three days of incubation at 37 °C, 5% CO2 and 5% O2 plates were frozen until analyzed by HRP2-ELISA. All compounds were evaluated in duplicate in at least two independent experiments. The IC50 was determined by nonlinear regression analysis of log concentration-response curves using the drc-package v3.0.1 [40] of R v4.0.5..

T1 sequence (Q13547 whole entry): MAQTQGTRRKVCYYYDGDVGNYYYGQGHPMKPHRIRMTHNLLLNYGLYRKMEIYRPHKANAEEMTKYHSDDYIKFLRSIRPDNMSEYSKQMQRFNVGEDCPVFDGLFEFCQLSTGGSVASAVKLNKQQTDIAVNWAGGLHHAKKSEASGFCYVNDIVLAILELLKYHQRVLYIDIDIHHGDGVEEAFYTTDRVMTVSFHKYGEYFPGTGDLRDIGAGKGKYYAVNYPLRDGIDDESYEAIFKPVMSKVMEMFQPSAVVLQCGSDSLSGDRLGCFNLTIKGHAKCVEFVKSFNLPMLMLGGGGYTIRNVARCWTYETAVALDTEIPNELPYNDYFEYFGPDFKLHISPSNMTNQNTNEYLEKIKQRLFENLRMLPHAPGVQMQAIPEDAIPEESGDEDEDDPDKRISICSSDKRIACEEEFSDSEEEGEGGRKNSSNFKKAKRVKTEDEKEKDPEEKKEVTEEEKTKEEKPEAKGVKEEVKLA

Row | Compound | IC50 (P. falciparum Dd2) | IC50 (P. falciparum 3D7) | IC50 (MOLM13 cells) | IC50 (K562 cells) | IC50 (human HDAC1 (hHDAC1)) | IC50 (A2780 cells) | IC50 (human HDAC6 (hHDAC6)) | SI 1/6 (human HDAC6 (hHDAC6)) | IC50 (NALM6 cells) | IC50 (HPBALL cells) | IC50 (HL60 cells) | antiproliferative activity compared to DHA [1] | inhibition at 3.33 µM (human HDAC1 (hHDAC1)) | IC50 (P. falciparum Dd2 R539T)
1 | C[C@H]1[C@H](Sc2ccc(CC(=O)NO)cc2)O[C@@H]2O[C@@]3(C)CC[C@H]4[C@H](C)CC[C@@H]1[C@@]24OO3 [(β)-7e, N-Hydroxy-2-(4-(((3R,5aS,6R,8aS,9R,10S,12S,12aR)-3,6,9-trimethyldecahydro-12H-3,12-epoxy[1,2]dioxepino[4,3-i]isochromen-10-yl)thio)phenyl)acetamide] | 0.0016 ± 0.0008 µM | 0.0026 ± 0.0013 µM | 0.64 ± 0.17 µM | 1.71 ± 0.33 µM | > 10 µM | 2.09 ± 0.42 µM | 1 ± 0.13 µM | >10 | 0.77 ± 0.08 µM | 20.6 ± 6.13 µM | – | – | – | –
2 | C[C@@H]1CC[C@H]2[C@@H](C)C(OCc3ccc(/C=C/C(=O)Nc4ccccc4N)cc3)O[C@@H]3O[C@@]4(C)CC[C@@H]1[C@]32OO4 (stereo partly drawn) [Compound 8, (E)-N-(2-Aminophenyl)-3-(4-((((3R,5aS,6R,8aS,9R,12R,12aR)-3,6,9-trimethyldecahydro-12H-3,12-epoxy[1,2]dioxepino[4,3-i]isochromen-10-yl)oxy)methyl)phenyl)acrylamide] | 0.0025 ± 0.00014 µM | 0.0025 ± 0.0014 µM | 0.49 ± 0.08 µM | 0.69 ± 0.11 µM | > 3.33 µM | 1.47 ± 0.98 µM | > 10 µM | – | 0.34 ± 0.03 µM | 1.69 ± 0.19 µM | 1.64 ± 0.17 µM | exceeded the antiproliferative potential of DHA in four out of five cell lines | 41% | –
3 | C[C@H]1[C@@H](Sc2ccc(CC(=O)NO)cc2)O[C@@H]2O[C@@]3(C)CC[C@H]4[C@H](C)CC[C@@H]1[C@@]24OO3 [(α)-7e, N-Hydroxy-2-(4-(((3R,5aS,6R,8aS,9R,10R,12S,12aR)-3,6,9-trimethyldecahydro-12H-3,12-epoxy[1,2]dioxepino[4,3-i]isochromen-10-yl)thio)phenyl)acetamide] | 0.0018 ± 0.0008 µM | 0.0031 ± 0.0007 µM | 0.45 ± 0.18 µM | 0.77 ± 0.24 µM | > 10 µM | 1.83 ± 0.1 µM | 1.1 ± 0.075 µM | >9 | 0.44 ± 0.01 µM | 3.34 ± 0.37 µM | 1.62 ± 0.12 µM | – | – | –
4 | C[C@@H]1CC[C@H]2[C@@H](C)C(SCCCCCC(=O)NO)O[C@@H]3O[C@@]4(C)CC[C@@H]1[C@]32OO4 (stereo partly drawn) [Compound 7b, N-Hydroxy-6-(((3R,5aS,6R,8aS,9R,12S,12aR)-3,6,9-trimethyldecahydro-12H-3,12-epoxy[1,2]dioxepino[4,3-i]isochromen-10-yl)thio)hexanamide] | 0.0066 ± 0.0025 µM | 0.0052 ± 0.0004 µM | 0.58 ± 0.19 µM | 0.91 ± 0.32 µM | 0.43 ± 0.046 µM | 1.52 ± 0.05 µM | 0.045 ± 0.005 µM | 10 | 0.26 ± 0.01 µM | 2.41 ± 0.38 µM | 2.07 ± 0.03 µM | – | – | 0.003 ± 0.0012 µM
5 | C[C@H]1[C@H](OCc2ccc(C(=O)NO)cc2)O[C@@H]2O[C@@]3(C)CC[C@H]4[C@H](C)CC[C@@H]1[C@@]24OO3 [Compound 7d, N-Hydroxy-4-((((3R,5aS,6R,8aS,9R,10R,12R,12aR)-3,6,9-trimethyldecahydro-12H-3,12-epoxy[1,2]dioxepino[4,3-i]isochromen-10-yl)oxy)methyl)benzamide] | 0.002 ± 0.0007 µM | 0.0028 ± 0.0013 µM | 0.39 ± 0.05 µM | 1 ± 0.36 µM | 2.49 ± 0.24 µM | 1.31 ± 0.32 µM | 0.014 ± 0.002 µM | 178 | 0.36 ± 0.05 µM | 6.81 ± 0.54 µM | 2.41 ± 0.45 µM | – | – | 0.0012 ± 0.0008 µM
6 | C[C@@H]1CC[C@H]2[C@@H](C)C(OCc3ccc(/C=C/C(=O)O)cc3)O[C@@H]3O[C@@]4(C)CC[C@@H]1[C@]32OO4 (stereo partly drawn) [Compound 6a, (E)-3-(4-((((3R,5aS,6R,8aS,9R,12R,12aR)-3,6,9-Trimethyldecahydro-12H-3,12-epoxy[1,2]dioxepino[4,3-i]isochromen-10-yl)oxy)methyl)phenyl)acrylic acid] | 0.0058 ± 0.0028 µM | 0.0059 ± 0.0007 µM | 0.68 ± 0.09 µM | 4.01 ± 0.6 µM | > 10 µM | 3.38 ± 0.21 µM | > 10 µM | – | 1.31 ± 0.11 µM | 23.9 ± 4.69 µM | 2.53 ± 0.56 µM | – | – | –
